Results on one molecule are retold here after publication PMC11176561 (Computational and Structural Biotechnology Journal, 2024).

The assay concerns ceftazidime-resistant E. coli E24. Briefly: E. coli-induced mouse bacteremia.
Where [1] appears, read: ceftazidime 5 mg/kg i.p., 8 h of drug treatment.

As for `CC(C)(O/N=C(\C(=O)N[C@@H]1C(=O)N2C(C(=O)[O-])=C(C[n+]3ccccc3)CS[C@H]12)c1csc(N)n1)C(=O)O` [Ceftazidime], the “loss of mice (mortality)” value (ceftazidime 5 mg/kg i.p. 2 h after i.p. E. coli E24) worked out at 85.7%. Also, under setting [1], the “bacterial load in the blood” value was “approximately 1 × 10^9 CFU/ml”; the “bacterial load in the lung, liver, spleen, and kidney tissues” value is reported as “approximately 1 × 10^9 CFU/g”.
